Test results taken from ChEMBL document CHEMBL6115028, “An Amazing 30-Year Journey around the DABO Family: A Medicinal Chemistry Lesson on a Versatile Class of Non-nucleoside HIV-1 Reverse Transcriptase Inhibitors” (J Med Chem, 2025).

Columns and labels:
[1] = system: Human immunodeficiency virus 1; assay: Antiviral activity against HIV-1 NL4-3 infected in human MT2 cells assessed as reduction in viral replication assessed as inhibition of viral growth incubated for 72 hrs by ELISA; assay type: functional, organism-based; details: Human immunodeficiency virus 1, NL4-3, MT2, 72 h
[2] = Selectivity index, ratio of CC50 for human MT4 cells to EC50 for antiviral activity against HIV1 infected in human MT4 cells; assay type: toxicity, cell-based; details: read-out: Ratio CC50/EC50
[3] = system: Human immunodeficiency virus 1; assay: Antiviral activity against HIV1 IIIB infected in human MT4 cells assessed as reduction in virus-induced cytopathic effect incubated for 4 days by MTT assay; assay type: functional, organism-based; details: Human immunodeficiency virus 1, IIIB, MT4, 96 h
[4] = system: Human immunodeficiency virus 1; assay: Antiviral activity against HIV-1 IIIB infected in human C8166 cells assessed as reduction in virus -induced cytopathic effect measured after 48 hrs by CellTiter-Glo Luminescent cell viability assay; assay type: functional, organism-based; details: Human immunodeficiency virus 1, IIIB, C8166, 48 h
C8166 = assay: Cytotoxicity against human C8166 cells assessed as reduction in cell viability; assay type: functional
[5] = Selectivity index, ratio of CC50 for cytotoxicity against human MT2 cells to EC50 for antiviral activity against HIV-1 IIIB infected in human MT2 cells; assay type: toxicity, cell-based; details: read-out: Ratio CC50/EC50
[6] = Cytotoxicity against african green monkey Vero cells assessed as reduction in cell viability measured after 72 hrs by MTT assay; assay type: toxicity, cell-based; details: chlorocebus sabaeus
[7] = system: Human immunodeficiency virus 1; assay: Antiviral activity against HIV-1 IIIB infected in human C8166 cells; assay type: functional, organism-based; details: Human immunodeficiency virus 1, IIIB
[8] = system: Human immunodeficiency virus 2; assay: Antiviral activity against HIV-2 ROD infected in human MT4 cells assessed as virus-induced cytopathic effect incubated for 5 days by MTT assay; assay type: functional, organism-based; details: Human immunodeficiency virus 2, ROD, MT4, 120 h
MT4 [9] = assay: Cytotoxicity against human MT4 cells assessed as reduction in cell growth incubated for 3 days by CellTiter-Glo luminescent assay; assay type: functional; details: MT4, 72 h, time 3 day
[10] = system: Human immunodeficiency virus 1; assay: Antiviral activity against wild type HIV-1 NL4-3 infected in human MT4 cells assessed as reduction in viral replication measured for 72 hrs by ELISA analysis; assay type: functional, organism-based; details: Human immunodeficiency virus 1, NL4-3, MT4, 72 h
[11] = system: Human immunodeficiency virus 1; assay: Antiviral activity against HIV-1 NL4-3 harboring infected K103N mutant infected in human MT4 cells assessed as reduction in viral replication; assay type: functional, organism-based; details: Human immunodeficiency virus 1, NL4-3, MT4
[12] = system: Human immunodeficiency virus 1; assay: Antiviral activity against wild-type HIV-1 IIIB infected in human MT4 cells assessed as reduction in virus-induced cytopathic effect incubated for 5 days by MTT assay; assay type: functional, organism-based; details: Human immunodeficiency virus 1, IIIB, MT4, 120 h
MT4 [13] = assay: Cytotoxicity against human MT4 cells assessed as reduction in cell growth after 5 days by MTT assay; assay type: functional; details: MT4, 120 h, time 5 day
MT4 [14] = assay: Cytotoxicity against human MT4 cells; assay type: functional
[15] = system: Human immunodeficiency virus 1; assay: Antiviral activity against wild type HIV-1 NL4-3 infected in human MT4 cells assessed as reduction in viral replication; assay type: functional, organism-based; details: Human immunodeficiency virus 1, NL4-3, MT4; read-out: EC50
[16] = system: Human immunodeficiency virus 1; assay: Antiviral activity against HIV-1 NL4-3 harboring infected Y181C mutant infected in human MT4 cells assessed as reduction in viral replication; assay type: functional, organism-based; details: Human immunodeficiency virus 1, NL4-3, MT4

Molecule `CCC(C)Sc1nc(O)c(C)c(Cc2ccccc2)n1` (configuration not stated) has an EC50 [1] of 200 nM.
`Cc1c(O)nc(SC2CCCCC2)nc1Cc1ccccc1` showed a selectivity ratio [2] greater than 530 and an EC50 [3] of 600 nM.
Molecule `CCC(C)Sc1nc(O)cc(Cc2ccccc2)n1` (configuration not stated) has an EC50 [1] of 80 nM.
`CCC(C)Sc1nc(O)cc(Cc2cccc(C)c2)n1` (configuration not stated) gave a selectivity ratio [2] greater than 578 and an EC50 [3] of 600 nM.
`Cc1c(O)nc(SC2CCCC2)nc1Cc1ccccc1` showed a selectivity ratio [2] greater than 555 and an EC50 [3] of 800 nM.
In the case of `Oc1cc(Cc2ccccc2)nc(SC2CCCCC2)n1`, the selectivity ratio [2] is reported as greater than 412 and the EC50 [3] is reported as 800 nM.
`CCC(C)Sc1nc(O)cc(Cc2c(Cl)cccc2Cl)n1` (configuration not stated) gave an EC50 [4] of 140 nM, a CC50 (C8166) greater than 200000 nM and a selectivity ratio [5] greater than 1430. For the same molecule, the CC50 at 72 h [6] was greater than 200000 nM.
Work on `CCC(C)Sc1nc(O)c(C)c(Cc2c(Cl)cccc2Cl)n1` (configuration not stated) yielded an EC50 [4] of 50 nM, a CC50 (C8166) greater than 200000 nM and a selectivity ratio [5] greater than 4000. The CC50 at 72 h [6] was greater than 200000 nM.
`CCc1c(Cc2ccccc2)nc(SCC(=O)c2ccc(OC)cc2)[nH]c1=O` gave an EC50 [7] of 45 nM, an EC50 [8] of 18900 nM and a CC50 (MT4 [9]) of 178000 nM.
Molecule `COc1ccc(C(=O)CSc2nc(Cc3ccccc3)c(C(C)C)c(=O)[nH]2)cc1` has an EC50 [7] of 30 nM, an EC50 [8] of 13400 nM and a CC50 (MT4 [9]) of 203000 nM.
With `COc1ccc(/C=C/CSc2nc(C(C)c3c(F)cccc3F)c(C)c(=O)[nH]2)cc1` (configuration not stated) the EC50 [10] was 2 nM.
Molecule `CCc1c(C(C)c2c(F)cccc2F)nc(SC/C=C/c2ccc(OC)cc2)[nH]c1=O` (configuration not stated) has an EC50 [10] of 2 nM.
`CCc1c(C(C)c2c(F)cccc2F)nc(SC/C=C/c2ccc([N+](=O)[O-])cc2)[nH]c1=O` (configuration not stated) showed an EC50 [10] of 4 nM.
Molecule `COc1ccc(CSc2nc(C(C)c3c(Cl)cccc3Cl)c(C)c(=O)[nH]2)cc1` (configuration not stated) has an EC50 [10] of 1 nM and an EC50 [11] of 5720 nM.
`COc1ccc(CSc2nc(C(C)c3c(F)cccc3F)c(C)c(=O)[nH]2)cc1` (configuration not stated) gave an EC50 [10] of 2 nM.
Work on `Cc1c(C(C)c2c(F)cccc2F)nc(SCc2ccc([N+](=O)[O-])cc2)[nH]c1=O` (configuration not stated) yielded an EC50 [10] of 3 nM and an EC50 [11] of 650 nM.
Molecule `Cc1c(O)nc(SCC(C)C)nc1Cc1ccccc1` has a selectivity ratio [2] of 162 and an EC50 [3] of 800 nM.
`CSCSc1nc(O)c(C)c(Cc2ccccc2)n1` showed an EC50 [1] of 1200 nM.
`Cc1cccc(Cc2nc(SC3CCCC3)nc(O)c2C)c1` gave a selectivity ratio [2] greater than 530 and an EC50 [3] of 600 nM.
For `CSCSc1nc(O)c(C(C)C)c(Cc2ccccc2)n1`, the EC50 [1] was 40 nM.
Work on `CCc1c(O)nc(SCSC)nc1Cc1ccccc1` yielded an EC50 [1] of 800 nM.
With `Cc1c(C(C)c2c(F)cccc2F)nc(SCc2ccc(C#N)cc2)[nH]c1=O` (configuration not stated) the EC50 [10] was 7 nM.
With `Cc1c(C(C)c2c(F)cccc2F)nc(NC(C)C)[nH]c1=O` (configuration not stated) the EC50 [12] was 20 nM and the CC50 (MT4 [13]) was greater than 200000 nM.
In the case of `Cc1c(Cc2c(Cl)cccc2Cl)nc(SCc2cn(Cc3ccc(S(N)(=O)=O)cc3)nn2)[nH]c1=O`, the CC50 (MT4 [14]) is reported as 95500 nM.
Molecule `Cc1c(Cc2c(Cl)cccc2Cl)nc(SCC(=O)Nc2ccc(F)c(F)c2)[nH]c1=O` has a selectivity ratio [2] greater than 387, an EC50 [7] of 690 nM and a CC50 (MT4 [9]) greater than 265000 nM.
Work on `Cc1c(Cc2c(Cl)cccc2Cl)nc(SCC(=O)Nc2ccc(Br)cc2)[nH]c1=O` yielded a selectivity ratio [2] greater than 1330, an EC50 [7] of 180 nM and a CC50 (MT4 [9]) greater than 243000 nM.
`Cc1c(Cc2c(Cl)cccc2Cl)nc(SCC(=O)Nc2ccc(Cl)cc2)[nH]c1=O` showed a selectivity ratio [2] greater than 836, an EC50 [7] of 320 nM and a CC50 (MT4 [9]) greater than 266000 nM.
For `Cc1c(Cc2c(Cl)cccc2Cl)nc(SCC(=O)Nc2ccc([N+](=O)[O-])cc2)[nH]c1=O`, the selectivity ratio [2] was 264, the EC50 [7] was 990 nM and the CC50 (MT4 [9]) was 45800 nM.
With `CC(C)CCSc1nc(Cc2c(F)cccc2I)cc(=O)[nH]1` the EC50 [4] was 50 nM, the CC50 (C8166) was greater than 200000 nM and the selectivity ratio [5] was greater than 4000. The CC50 at 72 h [6] was greater than 200000 nM.
With `CCC(C)Sc1nc(Cc2c(F)cccc2I)cc(=O)[nH]1` (configuration not stated) the EC50 [4] was 50 nM, the CC50 (C8166) was greater than 200000 nM and the selectivity ratio [5] was greater than 4000. The CC50 at 72 h [6] was greater than 200000 nM.
In the case of `C#CCOC(=O)[C@H](C)NP(=O)(Oc1ccccc1)Oc1nc(N(C)C)nc(C(C)c2c(F)cccc2F)c1C` (some centres not stated), the EC50 [15] is reported as 3 nM and the EC50 [16] is reported as 500 nM.
For `CCOC(=O)[C@H](C)NP(=O)(Oc1ccccc1)Oc1nc(N(C)C)nc(C(C)c2c(F)cccc2F)c1C` (some centres not stated), the EC50 [15] was 6 nM and the EC50 [16] was 1000 nM.
